How the values were obtained:
[1] = Stability of blends of Fesoterodine with sugar alcohols / lactose; type: physicochemical
Description: Blends of Fesoterodine hydrogen fumarate with xylitol, sorbitol, mannitol and maltitol were stored for 6 weeks and 3 months in closed vials at 25° C. and 60% r.H., in closed vials at 40° C. and 75% r.H., or in open vials at 40° C. and 75% r.H. and then tested for stability by measuring the purity of Fesoterodine. The initial purity of the Fesoterodine in the blends was 99.7%.

[2] = test system: patients with overactive bladder; test: Efficacy trial of Fesoterodine fumarate vs tolterodine ER and placebo; type: in vivo, human; conditions: FAS with LOCF; for Number of micturitions per 24 hours, Treatment difference vs Pbo / Urge incontinence per 24 hours, Treatment difference vs Pbo: ANCOVA; for Treatment response (responder rate): end of treatment
Description: The Fesoterodine formulations were as follows: […]
The trial was conducted in 19 countries. A total of 1135 subjects were randomized and 1103 subjects were included in the full analysis set: 279 in the placebo treatment group, 265 in the 4 mg Fesoterodine treatment group, 276 in the 8 mg Fesoterodine treatment group, and 283 in the 4 mg tolterodine ER treatment group. The mean age of subjects was 57 years. A total of 81% were female and 97% were white. There were no notable differences among the treatment groups with respect to gender, race, age, or weight/BMI.

[3] = Storage in open vials at 40° C. and 75% r.H. (stability, HPLC); type: physicochemical
Description: Fesoterodine hydrogen fumarate, a granulate containing Fesoterodine hydrogen fumarate and xylitol in a weight-ratio of 10:90, as well as a composition comprising Fesoterodine hydrogen fumarate and xylitol were stored in open vials (25 ml brown glass bottles) for up to 12 weeks at 40° C. and 75% r.H. The results are shown in Table 4 below.
The degradation of Fesoterodine was measured by HPLC. The following conditions were used to measure degradation products in the stability testing of Fesoterodine hydrogen fumarate: • Column: Polaris C18-Ether, 3 μm, 250 mm×4.6 mm • Eluent A: Water/methanesulfonic acid 1000:0.5 (v/v) • Eluent B: Acetonitrile/methanesulfonic acid 1000:0.5 (v/v) • Typical gradient profile:
• Column temperature: 35° C. • Flow rate: 1.2 mL/min • Detection wavelength: 220 nm • Injection volume: 20 μL
The retention time of the Active Metabolite was about 4.1 min (rrt=0.50); response factor: 1.4.
Evaluation of the HPLC results was by the area percent method.
A comparison of the observed average purity of a Fesoterodine-containing granulate and a corresponding composition as compared to pure Fesoterodine after open storage under stress conditions is set out in Table 4, wherein values are indicated in % of Fesoterodine hydrogen fumarate remaining at various times.

[4] = test system: patients with overactive bladder; test: Treatment-emergent adverse events in the efficacy trial (safety set)
Description: A randomized, double-blind, double dummy, placebo and active-controlled trial in adult male and female human subjects was conducted.
For the safety set, the number of patients were: 283 in the placebo treatment group, 272 in the Fesoterodine 4 mg/day treatment group, and 287 in the Fesoterodine 8 mg/day treatment group.

[5] = test system: healthy male and female human subjects; test: Electrocardiographic effects (QT) of Fesoterodine formulations; type: in vivo; conditions: for QTc outlier analyses vs placebo: three days of treatment
Description: Fesoterodine formulations were administered orally to steady state at dosages of 4 mg and 28 mg per day to healthy male and female human subjects and the effect of such administration on QT values was determined.
The Fesoterodine 4 mg formulation was as follows. Higher dosage levels were obtained by administering multiple 4 mg formulations.
Steady state was determined by pharmacokinetic analysis of the Active Metabolite. Assay sensitivity was shown by a significant increase from baseline in QTcF and QTcI after multiple doses of moxifloxacin. The mean time-averaged QTcF increased by 8.6 ms after three days of treatment with moxifloxacin.
The study design was double-blind, single-site, randomized, placebo- and positive controlled, parallel. Two hundred and fifty-six male and female subjects were assigned to one of the following four treatment groups (N=64 each; at least 50% female): • Fesoterodine 4 mg.day • Fesoterodine 28 mg/day • Moxifloxacin 400 mg/day • Placebo
Subjects were administered 3 days of one of the above four treatments. Three 12-lead ECGs were downloaded from an H-12 flash card (data carrier) at each of the following time points on Days −1, 1, and 3: 1, 2, 3, 4, 6, 8, 10, 12, 14, 16, 18, and 23.5 hours. Plasma samples for the determination of Active Metabolite concentration (and the concentration of further metabolites) were drawn on Day 1 and Day 3 predose and at 1, 2, 3, 4, 6, 8, 12, and 23.5 hours postdose.

[6] = Degradation of Fesoterodine during tablet production and storage; type: physicochemical
Description: Granulates of Fesoterodine with various sugars and sugar alcohols were produced as described in Example 1. These granulates were then used to produce 4 mg tablets according to Example 2.1 and with the composition given as “Example C” in Table 1, as well as wherein the xylitol was substituted with mannitol, maltitol, sorbitol, or lactose.

[7] = 4 mg/day, N = 272, listed as Feso
[8] = 8 mg/day, N = 287, listed as Feso

With `CC(C)C(=O)Oc1ccc(CO)cc1[C@H](CCN(C(C)C)C(C)C)c1ccccc1` [Fesoterodine, 2-[(1R)-3-(diisopropylamino)-1-phenylpropyl]-4-(hydroxymethyl)phenyl isobutyrate] the “Purity of Fesoterodine in blends” value ([1]; closed vial 25° C., 60% r.H., 3 months) was 99.7%, the “Purity of Fesoterodine in blends” value ([1]; closed vial 25° C., 60% r.H., 6 weeks) was 99.6% and the “Purity of Fesoterodine in blends” value ([1]; closed vial 40° C., 75% r.H., 6 weeks) was 99.3%. The “Purity of Fesoterodine in blends” value ([1]; open vial 40° C., 75% r.H., 3 months) was 53.1%, the “Purity of Fesoterodine in blends” value ([1]; open vial 40° C., 75% r.H., 6 weeks) was 96.3% and the “Number of micturitions per 24 hours, Treatment difference vs Pbo” value ([2]; 4 mg vs Pbo) was −0.81. The “Urge incontinence per 24 hours, Treatment difference vs Pbo” value ([2]; 4 mg vs Pbo) was −0.81, the “Number of micturitions per 24 hours, ANCOVA Endpoint LS Mean” value ([2]; 4 mg) was −1.76 and the “Urge incontinence per 24 hours, ANCOVA Endpoint LS Mean” value ([2]; 4 mg) was −1.95. The “Number of micturitions per 24 hours, change from baseline at end of treatment, Mean (SD)” value ([2]; 4 mg/day) was −1.74 (2.66), the “Urge incontinence per 24 hours, change from baseline at end of treatment, Mean (SD)” value (from here on “Urge incontinence per 24 hours, change … (SD)”) ([2]; 4 mg/day) was −1.44 (2.75) and the “Treatment response (responder rate)” value ([2]; 4 mg/day) was 75%. The “Number of micturitions per 24 hours, Treatment difference vs Pbo” value ([2]; 8 mg vs Pbo) was −0.93, the “Urge incontinence per 24 hours, Treatment difference vs Pbo” value ([2]; 8 mg vs Pbo) was −1.08 and the “Number of micturitions per 24 hours, ANCOVA Endpoint LS Mean” value ([2]; 8 mg) was −1.88. The “Urge incontinence per 24 hours, ANCOVA Endpoint LS Mean” value ([2]; 8 mg) was −2.22, the “Number of micturitions per 24 hours, change from baseline at end of treatment, Mean (SD)” value ([2]; 8 mg/day) was −1.94 (3.15) and the “Urge incontinence per 24 hours, change … (SD)” value ([2]; 8 mg/day) was −1.81 (2.35). The “Treatment response (responder rate)” value ([2]; 8 mg/day) was 79%, the “% of Fesoterodine hydrogen fumarate remaining (purity)” value ([3]; 1 week) was 98.56% and the “% of Fesoterodine hydrogen fumarate remaining (purity)” value ([3]; 2 weeks) was 97.67%. The “% of Fesoterodine hydrogen fumarate remaining (purity)” value ([3]; 4 weeks) was 94.32%, the “% of Fesoterodine hydrogen fumarate remaining (purity)” value ([3]; 12 weeks) was “about 50%” and the “% of Fesoterodine hydrogen fumarate remaining (purity)” value ([3]; 12 weeks, listed as Fesoterodine (pure)) was 50.39%. The “% of Fesoterodine hydrogen fumarate remaining (purity)” value ([3]; Initial) was 98.96%, the “incidence of blurred vision” value ([4]; 4 mg/day) was 1% and the “incidence of dry throat” value ([4]; 4 mg/day) was 1%. The “incidence of urinary retention” value ([4]; 4 mg/day) was 1%, the “Any adverse event, subjects (%)” value ([4]; 4 mg/day, N = 272) was 50% and the “Any adverse event, subjects n” value ([4]; 4 mg/day, N = 272) was 135. The “Constipation, subjects (%)” value ([4]; 4 mg/day, N = 272) was 3%, the “Constipation, subjects n” value ([4]; 4 mg/day, N = 272) was 9 and the “Fatigue, subjects (%)” value ([4]; 4 mg/day, N = 272) was “(<1) %”. For the same compound, the “Fatigue, subjects n” value ([4]; 4 mg/day, N = 272) was 1, the “Headache, subjects (%)” value ([4]; 4 mg/day, N = 272) was “(4) %” and the “Headache, subjects n” value ([4]; 4 mg/day, N = 272) was 12. For the same compound, the “Keratoconjunctivitis sicca, subjects (%)” value ([4]; 4 mg/day, N = 272) was 2%, the “Keratoconjunctivitis sicca, subjects n” value ([4]; 4 mg/day, N = 272) was 6 and the “Mouth dry, subjects (%)” value ([4]; 4 mg/day, N = 272) was 22%. The “Mouth dry, subjects n” value ([4]; 4 mg/day, N = 272) was 59, the “Nasopharyngitis, subjects (%)” value ([4]; 4 mg/day, N = 272) was “(3) %” and the “Nasopharyngitis, subjects n” value ([4]; 4 mg/day, N = 272) was 8. For the same compound, the “Urinary tract infection, subjects (%)” value ([4]; 4 mg/day, N = 272) was “(3) %”, the “Urinary tract infection, subjects n” value ([4]; 4 mg/day, N = 272) was 8 and the “Any adverse event, subjects (%)” value [4, 7] was “(50) %”. The “Constipation, subjects (%)” value [4, 7] was “(3) %”, the “Keratoconjunctivitis sicca, subjects (%)” value [4, 7] was “(2) %” and the “Mouth dry, subjects (%)” value [4, 7] was “(22) %”. The “incidence of blurred vision” value ([4]; 8 mg/day) was 1%, the “incidence of dry throat” value ([4]; 8 mg/day) was 3% and the “incidence of urinary retention” value ([4]; 8 mg/day) was 1%. For the same compound, the “Any adverse event, subjects (%)” value ([4]; 8 mg/day, N = 287) was 58%, the “Any adverse event, subjects n” value ([4]; 8 mg/day, N = 287) was 167 and the “Constipation, subjects (%)” value ([4]; 8 mg/day, N = 287) was 5%. For the same compound, the “Constipation, subjects n” value ([4]; 8 mg/day, N = 287) was 13, the “Fatigue, subjects (%)” value ([4]; 8 mg/day, N = 287) was “(<1) %” and the “Fatigue, subjects n” value ([4]; 8 mg/day, N = 287) was 1. The “Headache, subjects (%)” value ([4]; 8 mg/day, N = 287) was “(2) %”, the “Headache, subjects n” value ([4]; 8 mg/day, N = 287) was 7 and the “Keratoconjunctivitis sicca, subjects (%)” value ([4]; 8 mg/day, N = 287) was 4%. The “Keratoconjunctivitis sicca, subjects n” value ([4]; 8 mg/day, N = 287) was 12, the “Mouth dry, subjects (%)” value ([4]; 8 mg/day, N = 287) was 34% and the “Mouth dry, subjects n” value ([4]; 8 mg/day, N = 287) was 97. The “Nasopharyngitis, subjects (%)” value ([4]; 8 mg/day, N = 287) was “(2) %”, the “Nasopharyngitis, subjects n” value ([4]; 8 mg/day, N = 287) was 5 and the “Urinary tract infection, subjects (%)” value ([4]; 8 mg/day, N = 287) was “(3) %”. For the same compound, the “Urinary tract infection, subjects n” value ([4]; 8 mg/day, N = 287) was 9, the “Any adverse event, subjects (%)” value [4, 8] was “(58) %” and the “Constipation, subjects (%)” value [4, 8] was “(5) %”. The “Keratoconjunctivitis sicca, subjects (%)” value [4, 8] was “(4) %”, the “Mouth dry, subjects (%)” value [4, 8] was “(34) %” and the “mean time-averaged QTcF decrease” value ([5]; 4 mg Fesoterodine per day, after three days of treatment) was 4.6 ms. The “mean time-averaged QTcF decrease” value ([5]; 28 mg Fesoterodine per day, after three days of treatment) was 5.0 ms, the “effect on myocardial repolarization (QTcF and QTcI vs placebo)” value ([5]; multiple 4 mg and 28 mg doses) was “did not exert an effect on myocardial repolarization” and the “QTc outlier analyses vs placebo” value [5] was “no differences between the Fesoterodine treatment groups and placebo”.

For maltitol, the “hydrolyzation products and total degradation products in tablets prepared with the granulates” value [6] was 1.1-1.7%.

In the case of `COc1c(N2C[C@@H]3CCCN[C@@H]3C2)c(F)cc2c(=O)c(C(=O)O)cn(C3CC3)c12` [moxifloxacin, reference compound], the “mean time-averaged QTcF increase” value ([5]; moxifloxacin 400 mg/day, after three days of treatment) is reported as 8.6 ms and the “QTc outlier analyses vs placebo” value [5] is reported as “a higher incidence of QTc outliers”.

For `Cc1ccc(O)c([C@H](CCN(C(C)C)C(C)C)c2ccccc2)c1` [Tolt, tolterodine, reference compound], the “Number of micturitions per 24 hours, Treatment difference vs Pbo” value ([2]; 4 mg vs Pbo) was −0.78, the “Urge incontinence per 24 hours, Treatment difference vs Pbo” value ([2]; 4 mg vs Pbo) was −0.60 and the “Number of micturitions per 24 hours, ANCOVA Endpoint LS Mean” value ([2]; 4 mg) was −1.73. The “Urge incontinence per 24 hours, ANCOVA Endpoint LS Mean” value ([2]; 4 mg) was −1.74, the “Number of micturitions per 24 hours, change from baseline at end of treatment, Mean (SD)” value ([2]; 4 mg/day) was −1.69 (2.42) and the “Urge incontinence per 24 hours, change … (SD)” value ([2]; 4 mg/day) was −1.43 (2.20). For the same compound, the “Treatment response (responder rate)” value ([2]; 4 mg/day) was 72%.
